Measurements: patent publication US20230406883A1, “COMPOUNDS AND THEIR USE IN TREATMENT OF TACHYKININ RECEPTOR MEDIATED DISORDERS” (Embark Biotech ApS, priority 2020, published 2023)
Numbered stars: 1 amine (or outer) side, 2 acyl side, 3 side chain; on linkers, the order of the positions; unused ones are H or OH. Square brackets hold non-standard residues; d marks the D form. Side chains are listed from the residue outwards. Peptide text beside a SMILES is read from it. * marks the point of attachment. X1 = O=C(O)CCCCCCCCCCCCCCCCC(=O)N[C@@H](CCC(=O)NCCCNCCCCNCCCN*)C(=O)O; C18 diacid = O=C(O)CCCCCCCCCCCCCCCCC(=O)*; γGlu = O=C(O)[C@H](CCC(=O)[*:2])N[*:1]; εLys = N[C@@H](CCCCN[*:1])C(=O)[*:2]; NMeL = CN[C@@H](CC(C)C)C(=O)O; Suc = O=C(CCC(=O)[*:2])[*:1]; Nle = CCCC[C@H](N)C(=O)O

Tests used:
[1] = in vivo; parameters: species or system mice; settings: mouse
Description: Pharmacokinetics: To evaluate the in vivo half-life of individual peptide analogues we used wild type lean mice at around 10 weeks of age injected once with a peptide analogue. For each sample time point 3-4 mice were used and blood was drawn from the submandibular vein at indicated time points following injection. Prior to injection mice were given ad libitum access to standard chow diet. Mice were subcutaneously injected with 0.5 mg/kg peptide analogue in a volume of 2 ml/kg. The amount of peptide analogue and metabolite(s) present in blood samples were measured by TF-LC-MS and MetID-LC-MS, respectively. Sample preparation: One volume of plasma is precipitated with three volumes of ethanol (with internal standard). The mixture is centrifuged at 13000 g for 20 min. One volume of supernatant is diluted with two volumes of Milli-Q water (1% formic acid). Calibration curve: peptide analogue was spiked into blank mouse plasma. Range: 0.5 to 2000 nM (linear 1/x2).

[2] = Energy expenditure screening by indirect calorimetry in diet-induced obese mice; type: in vivo; settings: DIO mice, 0.5 mg/kg s.c., increase over vehicle
Description: Indirect calorimetry was used to evaluate the ability of individual peptide analogues to dose-dependently increase energy expenditure (EE) we used metabolic cages and indirect calorimetry measured by the Promethion system. To this end, oxygen consumption was used as a surrogate measure for EE. Substrate preference (fat or carbohydrate) was evaluated using the respiratory exchange ratio (RER). In parallel, behavioral information such as walking distance and water and food intake were recorded.
Prior to experimentation, DIO mice were transferred to habituation cages for at least 10 days (5 days outside and at least 5 days in the Sable Systems gas analyzer module) to acclimatize. For all in vivo compound tests for EE evaluation, mice received subcutaneous injections between 2 and 4 pm.
Energy expenditure screening: After habituation, mice were subcutaneously injected with 0.5 mg/kg peptide analogue in a volume of 2 ml/kg. Mice were injected q.a.d. (quaque altera die) and received a total of two injections. EE was evaluated and increase over vehicle was calculated as percent of mean oxygen consumption over a 30-hour period after injection. Prior to injection peptide analogues were dissolved to 0.25 mg/ml in in vivo buffer.

Compound	Plasma exposure [26 h] [1]	level at time molar at 2 h ([1]; sc, 0.5 mg/kg) [nM]	Energy expenditure (percent of vehicle; based on 30 h average vO2) [2]	Plasma exposure [2 h] [1] [nM]
CCCC[C@H](NC(=O)[C@H](CC(C)C)N(C)C(=O)CNC(=O)[C@@H](NC(=O)[C@H](Cc1ccc(O)cc1)NC(=O)[C@H](CCCCN)NC(=O)[C@H](CC(=O)O)NC(=O)CCC(=O)NCCCNCCCCNCCCNC(=O)CC[C@H](NC(=O)CCCCCCCCCCCCCCCCC(=O)O)C(=O)O)C(C)C)C(N)=O [compound 318, *Asp;Lys;Tyr;Val;Gly;NmLeu;Nle;NH2] ({X1-Suc}-DKYVG[NMeL][Nle]-NH2)	BLLQ	237	0% of vehicle	–
CCCC[C@H](NC(=O)[C@H](CC(C)C)N(C)C(=O)CNC(=O)[C@@H](NC(=O)[C@H](Cc1ccc(O)cc1)NC(=O)[C@H](CCCCN)NC(=O)[C@H](CC(=O)O)NC(=O)[C@@H](N)CCCCNC(=O)[C@@H](N)CCCCNC(=O)CC[C@H](NC(=O)CCCCCCCCCCCCCCCCC(=O)O)C(=O)O)C(C)C)C(N)=O [compound 321, *Asp;Lys;Tyr;Val;Gly;NmLeu;Nle;NH2] (H-K([εLys-γGlu-C18 diacid])DKYVG[NMeL][Nle]-NH2)	763 nM	–	5% of vehicle	2266
